According to patent US20070231828A1, “Methods of predicting behavior of cancers” (Johns Hopkins University, priority 2003, published 2007):
“Also recorded” adds a separate entry of the source. Where two headings read alike, the source gives them in different places.

Legend:
[1] = test system: human prostate cancer cell lines; test: Quantitative RT-PCR of transcripts; assay type: cell-based
Description: (§1) Amplification of Hh pathway components was normalized in qRT-PCR experiments to that of endogenous phosphoglycerate kinase in each sample. Oligonucleotide primers used in quantitative reeal-time and conventional amplification of reverse transcribed mRNA (RT-PCR) are shown in Table 4.

[2] = test system: 22RV1 xenograft tumors; details: 50 mg/kg daily s.c.
Method: (§2) CWR22RV1 (n=14) and PC3tumor xenografts (n=20) were grown by injecting 0.1 ml of Hanks Balanced Salt Solution and Matrigel (1:1) (Beckton Dickinson, Franklin Lakes, N.J.) containing 2.5×10^6 cells subcutaneously at each of two locations (right anterior and posterior flank) per athymic mouse. […] Animals were euthanized and tumors harvested for Ki-67 staining. […] Mice were observed daily for distress and experiments were carried out according to approved institutional protocols. Individual tumor volumes were plotted and regression curves were generated using analysis software to determine individual tumor growth rates.

[3] = test system: PC3 xenograft tumors; details: 50 mg/kg daily s.c.
Method: as §2

[4] = test system: AT6.3 cells; test: Quantitative RT-PCR of transcripts; assay type: cell-based, rat
Description: as §1

[5] = test system: AT6.3 subcutaneous tumors
[6] = test system: AT2.1 subcutaneous tumors; test: Dunning rat prostate carcinoma xenografts in athymic mice; assay type: in vivo; details: s.c.
[7] = test system: prostate epithelium; test: Prostate regeneration in castrated mice; assay type: in vivo, C57B16/J mice; details: castrates
Description: Prostates were collected, weighed, and processed for histology.

[8] = test system: AT6.3 cells; test: In vitro Matrigel invasion assay; assay type: cell-based, rat; details: 3 μM pre-treatment 24 hours, normalized to viable cell mass
Description: (§3) Cells reaching the lower chamber were counted according to the manufacturer's protocol. Results were normalized to viable cell mass assayed as described above.

[9] = test system: AT2.1-GLI cells; test: In vitro Matrigel invasion assay; assay type: cell-based, rat; details: 3 μM pre-treatment 24 hours
Description: as §3

[10] = test system: 22RV1-GLI cells; test: In vitro Matrigel invasion assay; assay type: cell-based, human
Description: as §3

[11] = test system: 22RV1 cells; test: In vitro Matrigel invasion assay; assay type: cell-based, human
Description: as §3

For CC1=C2C[C@H]3[C@@H](CC=C4C[C@@H](O)CC[C@@]43C)[C@@H]2CC[C@]12O[C@@H]1C[C@H](C)CN[C@H]1[C@H]2C [cyclopamine], the “expression of transcripts encoding c-myc” value [1] was “reduced expression”, the “expression of transcripts encoding cyclin D1” value [1] was “reduced expression” and the “transcription of the gene encoding Nestin” value [1] was “suppressed transcription”. The “expression of E-cadherin transcripts” value ([1]; human metastasis-derived prostate cancer cell lines) was “increased expression”, the “expression of Snail transcripts” value ([1]; human prostate cancer cell lines) was “decreased expression” and the “expression of the metastasis suppressor Ndrgl” value ([1]; human prostate cancer cells) was “increased expression”. For the same molecule, the “time to complete regression of the tumors” value [2] was 20 to 24 days, the “time to complete regression of the tumors” value [3] was 20 to 24 days and the Snail expression ([4]; AT6.3 cells) was “suppressed”. The “expression of E-cadherin transcripts” value ([4]; rat metastasis-derived prostate cancer cell line) was “increased expression”, the “Growth rate (% tumor volume/day)” value ([5]; i.p. 10 mg/kg) was 9.2 ± 2.4 % tumor volume/day and the “Median Survival” value ([5]; i.p. 10 mg/kg/day) was 19 days. For the same molecule, the metastasis ([5]; i.p. 10 mg/kg/day) was “inhibited metastasis”, the “time by which all animals were dead” value ([5]; i.p. 10 mg/kg/day) was no more than 26 days and the “Growth rate (% tumor volume/day)” value ([5]; i.p. 50 mg/kg) was 4.9 ± 1.0 % tumor volume/day. For the same molecule, the “Median Survival” value ([5]; i.p. 50 mg/kg) was “No death”, the metastasis ([5]; i.p. 50 mg/kg/day) was “blocked metastasis” and the death ([5]; i.p. 50 mg/kg/day, 50 day treatment period) was “prevented death”. For the same molecule, the “Median Survival” value ([5]; s.c. 50 mg/kg) was “No tumors”, the “Median Survival” value [6] was “No tumors” and the prostate regeneration ([7]; DHT plus cyclopamine 50 mg/kg/day s.c. for 10 days) was “abolished prostate regeneration; also recorded: completely blocked prostate regeneration”. For the same molecule, the reduction of invasiveness [8] was “approximately nine-fold”, the invasiveness [9] was “did not reduce the invasiveness” and the invasiveness [10] was “not affected”. The invasiveness [11] was “blocked”.

For C[C@]12CCC(=O)C[C@@H]1CC[C@@H]1[C@@H]2CC[C@]2(C)[C@@H](O)CC[C@@H]12 [dihydrotestosterone], the prostate regeneration ([7]; 50 mg/kg/d for ten days after seven days of androgen withdrawal) was “re-growth of prostate of nearly normal size”.
